Source: patent US11571426B2, “Compositions for preventing or treating lupus” (CHONG KUN DANG PHARMACEUTICAL CORP., priority 2017, dated 2023)
Marks after values point to notes of the source that are not given here.

How the values were obtained:
[1] = test system: NZB/W F1 female mice; assay: Proteinuria and UP/C in SLE model mouse; type: in vivo; settings: for incidence rate of severe proteinuria of 300 mg/dl or more: 42 weeks old
Experimental: (§1) 80 NZB/W F1 female mice (four weeks old) were purchased from Jackson Laboratory and maintained in an SPF breeding room with five mice per cage. Their weight and urine protein were measured at 24 weeks after birth (right before administration), and then all the animals except those having too much urine protein were divided into groups as shown in a table 2 below such that the urine protein and weight might be evenly distributed among the groups.
(§2) Then, the mice were administered as described in the table 2 once a day for about 19 weeks from 24 weeks after birth to 42 weeks after birth.
(§3) The fresh urine of mice was collected before and after administration every two weeks, while blood collection was performed before and after administration every four weeks. The serum was prepared by centrifugation of the collected blood and then kept at −70° C.
A urine creatinine concentration was obtained by diluting the urine 100-fold, then measuring the concentration thereof by means of a serum chemistry analyzer (Dri-CHEM 3000 colorimetric analyzer, Fujifilm), and then calibrating the measured value using a dilution factor.

[2] = test system: NZB/W F1 female mice; assay: Immunoglobulin isotypes in serum (Luminex); type: in vivo, mouse; settings: 50 mg/kg dosed group vs negative control
Experimental: as §1, §2
A concentration of immunoglobulin isotypes (IgG1, IgG2a, IgG2b, IgG3 and IgM) in the serum obtained during the mouse autopsy was measured by means of Luminex assay kit for mouse isotype (R&D systems, Minneapolis, Minn.).

[3] = test system: NZB/W F1 female mice; assay: T cell populations in spleen (FACS) in SLE disease mouse; type: in vivo
Experimental: as §1, §2
To evaluate a pattern of immune T cell populations in spleen in the SLE disease mouse, a ratio of CD3, CD4, CD8a and CTLA4 expressions as well as a Treg proportion/Th1, Th2, Th17 and Treg master regulator (T-bet, GATA-3, ROR-γt, Foxp3) expression patterns were measured.
To that end, splenocytes were first obtained from the spleen obtained during the mouse autopsy by means of a 70 μm cell strainer (BD), and then red blood cells were hemolyzed by means of an EL buffer and washed with FACS buffer solution (5% BSA/PBS). After that, staining was performed at a concentration recommended by a manufacturer by means of PerCP-cy5.5-conjugated anti-mouse CD3 (ebioscience, Sandiego, Calif., USA), PE-Cyanine7-conjugated anti-mouse CD8a (ebioscience), FITC-conjugated anti-CD4 (BD), APC-conjugated anti-mouse CD25 (BD), PE-conjugated anti-mouse FoxP3 (BD), PE-conjugated anti-mouse RORγt (ebioscience), PE-conjugated anti-mouse T-bet (ebioscience), PE-conjugated anti-mouse GATA-3 (ebioscience), and PE-conjugated anti-mouse CTLA4 (ebioscience) antibodies.
The splenocytes and cell surface marker antibodies were immediately reacted. Before reacting FoxP3, RORγt, T-bet and GATA3 antibodies, the splenocytes were fixed by means of a FoxP3/Transcription Factor staining buffer set, then permeabilized, and then reacted with the antibodies. A ratio of CD4:CD8 in CD3 cells as well as a ratio of CD4+CD8-cells, CD4−CD8+ cells, CD4+CD8+ cells and double negative T cells were respectively measured and compared between the groups. To identify a ratio of FoxP3, RORγt, T-bet and GATA3, which were master regulators of Treg, Th17, Th1 and Th2, a ratio of CD4+CD25+FoxP3+ cells, CD4+CD25+RORγt+ cells, CD4+CD25+ T-bet+ cells and CD4+CD25+GATA3+ cells was respectively measured.

[4] = test system: NZB/W F1 female mice; assay: BUN and serum creatinine in SLE model mouse; type: in vivo
Experimental: as §1, §2, §3
To evaluate a kidney function of the SLE model mouse, BUN and creatine concentrations were measured from a mouse serum collected every month (at 24, 28, 32, 36 and 40 weeks old and during autopsy) by means of a Dri-CHEM 3000 colorimetric analyzer (Fuji film).

[5] = test system: NZB/W F1 female mice; assay: Ratio of PreB and ProB cells in marrow (FACS); type: in vivo, mouse; settings: experimental groups vs control group
Experimental: as §1, §2
A ratio of pro B (B220+, CD43+) and pre B (B220+, CD43−) cells in mouse marrow cells was measured by means of FACS. To that end, the marrow cells were obtained by flushing a femur with PBS comprising 5% BSA. After that, red blood cells were hemolyzed by means of EL buffer, then washed with FACS buffer (5% BSA/PBS), and then stained with FITC-conjugated anti-mouse CD43 antibodies (ebioscience) and PE-conjugated anti-mouse […] antibodies (ebioscience), such that a ratio of Pre B (B220+CD43-) and Pro B (B220+CD43+) cells was measured.

[6] = test system: NZB/W F1 female mice; assay: Serum chemistry after long-term administration; type: in vivo, mouse; settings: serum at autopsy
Experimental: as §1, §2
Data obtained from groups were compared using a Kruskal-Wallis (†p<0.05), *p<0.05 versus C group (Mann-Whitney U-test), ALT: alanine aminotransferase, AST: aspartate aminotransferase, ALP: alkaline phosphatase, TBIL: total bilirubin, TCHOL: total cholesterol, TG: triglyceride, TP: total protein, CPK: creatine phosphokinase)

[7] = 50 mg/kg dosed group vs control group
[8] = spleen, CD3+ gated, experimental groups
[9] = experimental groups vs control groups
[10] = experimental groups, 40 weeks old

O=C(NO)c1ccc(CN(C(=O)N2CCOCC2)c2cccc(C(F)(F)F)c2)cc1 [Compound 374, N-(4-(hydroxycarbamoyl)benzyl)-N-(3-(trifluoromethyl)phenyl)morpholine-4-carboxamide]
incidence rate of severe proteinuria of 300 mg/dl or more ([1]; 10 mg/kg dosed group): 60%
incidence rate of severe proteinuria of 300 mg/dl or more ([1]; 30 mg/kg dosed group): 6.7%
incidence rate of severe proteinuria of 300 mg/dl or more ([1]; 50 mg/kg dosed group): 0%
UP/C (ratio of urine protein:creatine) ([1]; 36-week old, all the experimental groups): remarkably decreased
UP/C value ([1]; 42-week old, all experimental groups except the 10 mg/kg dosed group, vs negative control): decreased more
incidence rate of severe proteinuria ([1]; experimental groups, 24 to 42 week after birth): remarkably improved
concentration of IgG1 in serum [2]: decreased
concentration of IgG2a in serum [2]: decreased
concentration of IgG2b in serum [2]: decreased
concentration of IgG3 in serum [2]: decreased
concentration of IgM in serum [2]: remarkably decreased
ratio of CD4+T-bet+/CD4+GATA-3+ ([3]; 30 mg/kg and 50 mg/kg dosed groups vs control group): more significantly decreased
T-bet expression in CD4+ cells [3, 7]: significantly lower
ratio of CD4+CD25+ cells/CD4+ cells [3, 7]: significantly lower
ratio of CD25+ cells [3, 7]: significantly lower
ratio of CD4−CD8+ T cells [3, 8]: increased
ratio of CD4−CD8− T cells [3, 8]: decreased
ratio of CD4+CD25+Foxp3+, CD4+CD25+RORγt+, CD4+CD25+ T-bet+ and CD4+CD25+GATA-3+ cells ([3]; spleen, between the groups): a significance between the groups was not observed yet
ratio of CD4+CD8−: CD4−CD8+ T cells ([3]; spleen, experimental groups): tended to decrease as an administered dose was increased
BUN concentration [4, 9]: decreased
serum creatine concentration [4, 9]: decreased
BUN concentration [4, 10]: remarkably excellent effect of reducing
serum creatine concentration [4, 10]: remarkably excellent effect of reducing
ratio of pre B and pro B cells in marrow [5]: significant change in the ratio of pre B and pro B cells was not observed
ALP ([6]; group D, 10 mg/kg/day i.p.): 187.44 ± 20.75 U/I
ALT ([6]; group D, 10 mg/kg/day i.p.): 18.10 ± 1.72 U/I
AST ([6]; group D, 10 mg/kg/day i.p.): 44.20 ± 3.19 U/I
Albumin ([6]; group D, 10 mg/kg/day i.p.): 1.91 ± 0.14 g/dL
CPK ([6]; group D, 10 mg/kg/day i.p.): 86.70 ± 17.99 U/I
Ca ([6]; group D, 10 mg/kg/day i.p.): 10.08 ± 0.40 mg/dL
Glucose ([6]; group D, 10 mg/kg/day i.p.): 162.56 ± 9.36 mg/dL
TBIL ([6]; group D, 10 mg/kg/day i.p.): 0.22 ± 0.03 mg/dL
TCHOL ([6]; group D, 10 mg/kg/day i.p.): 193.60 ± 34.55 mg/dL
TG ([6]; group D, 10 mg/kg/day i.p.): 241.00 ± 35.25 mg/dL
TP ([6]; group D, 10 mg/kg/day i.p.): 4.74 ± 0.20 g/dL
ALP ([6]; group E, 30 mg/kg/day i.p.): 155.92 ± 5.53* U/I
ALT ([6]; group E, 30 mg/kg/day i.p.): 20.79 ± 0.78* U/I
AST ([6]; group E, 30 mg/kg/day i.p.): 55.21 ± 5.17* U/I
Albumin ([6]; group E, 30 mg/kg/day i.p.): 2.19 ± 0.11 g/dL
CPK ([6]; group E, 30 mg/kg/day i.p.): 84.71 ± 8.39 U/I
Ca ([6]; group E, 30 mg/kg/day i.p.): 9.65 ± 0.19 mg/dL
Glucose ([6]; group E, 30 mg/kg/day i.p.): 191.29 ± 7.33* mg/dl
TBIL ([6]; group E, 30 mg/kg/day i.p.): 0.26 ± 0.03 mg/dL
TCHOL ([6]; group E, 30 mg/kg/day i.p.): 140.07 ± 14.48 mg/dL
TG ([6]; group E, 30 mg/kg/day i.p.): 240.86 ± 56.19* mg/dl
TP ([6]; group E, 30 mg/kg/day i.p.): 5.21 ± 0.19 g/dL
ALP ([6]; group F, 50 mg/kg/day i.p.): 153.08 ± 4.78 U/I
ALT ([6]; group F, 50 mg/kg/day i.p.): 29.07 ± 3.26* U/I
AST ([6]; group F, 50 mg/kg/day i.p.): 59.00 ± 15.00 U/I
Albumin ([6]; group F, 50 mg/kg/day i.p.): 2.26 ± 0.09* g/dl
CPK ([6]; group F, 50 mg/kg/day i.p.): 125.86 ± 47.35 U/I
Ca ([6]; group F, 50 mg/kg/day i.p.): 9.43 ± 0.16 mg/dL
Glucose ([6]; group F, 50 mg/kg/day i.p.): 200.23 ± 3.91* mg/dl
TBIL ([6]; group F, 50 mg/kg/day i.p.): 0.28 ± 0.04 mg/dL
TCHOL ([6]; group F, 50 mg/kg/day i.p.): 129.57 ± 8.98 mg/dL
TG ([6]; group F, 50 mg/kg/day i.p.): 183.29 ± 15.00 mg/dL
TP ([6]; group F, 50 mg/kg/day i.p.): 5.35 ± 0.16* g/dl
